Experimental data reported in ChEMBL document CHEMBL1152324, “Protolimonoids from Melia toosendan” (J Nat Prod, 2009).

Tests used:
Format in all cases: functional, cell-based
HL-60 = assay: Cytotoxicity against human HL60 cells by SRB assay
HT-29 = assay: Cytotoxicity against human HT-29 cells by SRB assay
MCF7 = assay: Cytotoxicity against human MCF7 cells by SRB assay

## CC(C)=CCCC(C(=O)O)[C@@H]1[C@@H](O)C[C@]2(C)C3=CC[C@H]4C(C)(C)[C@@H](O)CC[C@]4(C)[C@H]3CC[C@@]12C (some centres not stated) [TOOSENDANIC ACID A]
HL-60
  IC50: < 10 µM
HT-29
  IC50: < 10 µM
MCF7
  IC50: < 10 µM

## CC(C)=CCCC(C(=O)O)[C@@H]1[C@@H](O)C[C@]2(C)C3=CC[C@H]4C(C)(C)[C@H](O)CC[C@]4(C)[C@H]3CC[C@@]12C (some centres not stated) [TOOSENDANIC ACID B]
HL-60
  IC50: < 10 µM
HT-29
  IC50: < 10 µM
MCF7
  IC50: < 10 µM

## COc1cccc2c1C(=O)c1c(O)c3c(c(O)c1C2=O)C[C@@](O)(C(=O)CO)C[C@@H]3O[C@H]1C[C@H](N)[C@H](O)[C@H](C)O1 [DOXORUBICIN]
HL-60
  IC50: 0.016 µM
HT-29
  IC50: 0.33 µM
MCF7
  IC50: 0.12 µM

## CC(C)(O)[C@@H]1CC[C@H]([C@@H]2[C@@H](O)C[C@]3(C)C4=CC[C@H]5C(C)(C)C(=O)CC[C@]5(C)[C@H]4CC[C@@]23C)[C@H]1O [TOOSENDANONE A]
HL-60
  IC50: < 10 µM
HT-29
  IC50: < 10 µM
MCF7
  IC50: < 10 µM
